Reference: patent US20230381134A1, “COCRYSTALS OF CANNABINOIDS” (PURISYS, LLC, priority 2020, published 2023)

Legend:
[1] = solid, ambient conditions / storage
Experimental: PXRD diffractograms were acquired on a PANalytical X'Pert Pro diffractometer using Ni-filtered Cu Ka (45 kV/40 mA) radiation and a step size of 0.03° 2θ and X'celerator™ RTMS (Real Time Multi-Strip) detector. Configuration on the incidental beam side: variable divergence slits (10 mm irradiated length), 0.04 rad Soller slits, fixed anti-scatter slit (0.50°), and 10 mm beam mask. Configuration on the diffracted beam side: variable anti-scatter slit (10 mm observed length) and 0.04 rad Soller slit. Samples were mounted flat on zero-background Si wafers.
PXRD diffractograms were acquired on a Bruker D8 Advance system (SN:2631) using Cu Ka (40 kV/40 mA) radiation and a step size of 0.03° 2θ and LynxEye detector. Configuration on the incident beam side: Goebel mirror, mirror exit slit (0.2 mm), 2.5 deg Soller slits, beam knife. Configuration on the diffracted beam side: anti-scatter slit (8 mm) and 2.5 deg. Soller slit. Samples were mounted flat on zero-background Si wafers.

CB1 receptor = CB1 receptor (Homo sapiens, UniProt P21554); settings: cited from earlier work
[2] = target: cannabinoid G-protein coupled receptor CB2 (Homo sapiens, UniProt P34972); settings: cited from earlier work
[3] = Solubility of the cannabinol starting material in various solvents

cannabinoid G-protein coupled receptor CB2, sequence (P34972 whole entry): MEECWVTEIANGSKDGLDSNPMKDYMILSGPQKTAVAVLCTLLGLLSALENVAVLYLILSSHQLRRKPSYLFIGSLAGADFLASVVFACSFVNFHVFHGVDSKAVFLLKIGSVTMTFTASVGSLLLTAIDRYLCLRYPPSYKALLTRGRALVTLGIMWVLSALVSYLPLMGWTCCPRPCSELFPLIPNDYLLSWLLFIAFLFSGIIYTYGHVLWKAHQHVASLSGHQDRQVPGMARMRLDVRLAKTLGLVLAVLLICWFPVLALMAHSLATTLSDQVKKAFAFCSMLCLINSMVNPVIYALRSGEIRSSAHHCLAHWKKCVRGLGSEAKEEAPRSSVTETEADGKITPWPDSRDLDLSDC
CB1 receptor, sequence (P21554 whole entry): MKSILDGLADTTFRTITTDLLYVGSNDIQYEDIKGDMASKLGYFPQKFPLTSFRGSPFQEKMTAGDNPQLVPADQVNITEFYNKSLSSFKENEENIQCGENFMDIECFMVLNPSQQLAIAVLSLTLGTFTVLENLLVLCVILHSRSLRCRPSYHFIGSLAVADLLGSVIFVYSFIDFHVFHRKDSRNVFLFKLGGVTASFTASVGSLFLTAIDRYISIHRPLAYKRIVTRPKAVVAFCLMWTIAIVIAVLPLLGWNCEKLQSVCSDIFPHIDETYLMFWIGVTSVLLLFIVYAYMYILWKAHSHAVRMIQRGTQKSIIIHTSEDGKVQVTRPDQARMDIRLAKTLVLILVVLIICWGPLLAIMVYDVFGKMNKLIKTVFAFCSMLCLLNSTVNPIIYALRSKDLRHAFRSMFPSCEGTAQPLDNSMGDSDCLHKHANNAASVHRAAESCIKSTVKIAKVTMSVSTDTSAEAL

SMILES: CCCCCc1cc(O)c2c(c1)OC(C)(C)c1ccc(C)cc1-2.O=C(O)C1CCCN1 [Mono-L-Proline Cocrystal Group C]
- physical stability by PXRD [1]: physically stable by PXRD for three days at ambient

SMILES: CCCCCc1cc(O)c2c(c1)OC(C)(C)c1ccc(C)cc1-2 [cannabinol, 6,6,9-Trimethyl-3-pentyl-benzo[c]chromen-1-ol]
- affinity for CB1 (CB1 receptor): minimal affinity
- binding to CB2 [2]: preferentially binds
- affinity for CB2 receptor relative to THC (fold lower) ([2]; relative to THC): about 3 fold
- solubility ([3]; water (1% methanol)): < 20 mg/mL
- solubility ([3]; water (1% methanol), 40 °C): < 20 mg/mL
- solubility ([3]; water (denatured with 1% MeOH)): < 20 mg/mL
